Experimental data taken from patent US5508311A, “Aliphatic propargylamines as selective MAO-B inhibitors and as neuroprotective agents” (University of Saskatchewan, priority 1993, dated 1996).

What was measured:
monoamine oxidase = test: Inhibition of rat liver monoamine oxidase deamination of dopamine (DA, mixed-type MAO A and B substrate) in vitro; format: biochemical; settings: substrate DA (5 × 10^-4 M), average of at least 3 independent experiments
Method: The aliphatic propargylamine inhibitors (from 1×10^-10 M to 1×10^-4 M) were preincubated with the MAO for 20 min. at ambient room temperature and then the residual enzyme activities were determined by addition of the substrates, followed by further incubation at 37° C. for 30 min. The enzymatic reactions were terminated by the addition of citric acid and the aldehyde products were extracted with toluene: ethyl acetate (1:1, v/v) and the radio-activities assessed in a scintillation counter.

MAO-A [1] = target: T1, MAO-A (Mus musculus, UniProt Q64133); test: in vivo; settings: ip, 2 h, read-out: 5-HT ID50
T1 construct: MAO activities in the mouse brain after; from tissue
T1 sequence (Q64133 1-526): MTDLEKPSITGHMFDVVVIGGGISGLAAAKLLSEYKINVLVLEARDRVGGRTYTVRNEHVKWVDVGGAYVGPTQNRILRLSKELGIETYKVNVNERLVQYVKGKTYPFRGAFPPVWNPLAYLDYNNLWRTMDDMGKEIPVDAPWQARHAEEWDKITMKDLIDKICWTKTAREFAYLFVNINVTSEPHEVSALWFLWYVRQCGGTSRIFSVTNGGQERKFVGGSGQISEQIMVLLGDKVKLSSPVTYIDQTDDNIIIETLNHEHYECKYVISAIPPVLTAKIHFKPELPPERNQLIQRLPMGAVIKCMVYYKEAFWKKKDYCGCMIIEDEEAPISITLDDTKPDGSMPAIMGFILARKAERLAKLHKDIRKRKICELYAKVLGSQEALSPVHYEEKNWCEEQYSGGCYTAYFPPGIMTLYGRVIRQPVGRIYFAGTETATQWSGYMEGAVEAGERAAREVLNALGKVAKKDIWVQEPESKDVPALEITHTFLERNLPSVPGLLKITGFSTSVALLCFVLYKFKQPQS
Method: Albino Swiss mice were used in this study. The animals were injected intraperitoneally with different doses of the aliphatic propargylamines in 100 μL saline.
0.5, 1, 2, 5, 10, 20, 50, 100 mg/Kg. Striata were dissected from the brai
two hours after i.p. administration of the drugs. MAOA and MAOB activitie
were determined immediately. The values were estimated from doseresponse

MAO-A [2] = target: T2, MAO-A (Rattus norvegicus, UniProt P21396); test: biochemical; format: biochemical; settings: substrate 5-HT (5 × 10^-4 M); rat liver MAO, in vitro; average of at least 3 independent experiments
T2 sequence (P21396 1-526): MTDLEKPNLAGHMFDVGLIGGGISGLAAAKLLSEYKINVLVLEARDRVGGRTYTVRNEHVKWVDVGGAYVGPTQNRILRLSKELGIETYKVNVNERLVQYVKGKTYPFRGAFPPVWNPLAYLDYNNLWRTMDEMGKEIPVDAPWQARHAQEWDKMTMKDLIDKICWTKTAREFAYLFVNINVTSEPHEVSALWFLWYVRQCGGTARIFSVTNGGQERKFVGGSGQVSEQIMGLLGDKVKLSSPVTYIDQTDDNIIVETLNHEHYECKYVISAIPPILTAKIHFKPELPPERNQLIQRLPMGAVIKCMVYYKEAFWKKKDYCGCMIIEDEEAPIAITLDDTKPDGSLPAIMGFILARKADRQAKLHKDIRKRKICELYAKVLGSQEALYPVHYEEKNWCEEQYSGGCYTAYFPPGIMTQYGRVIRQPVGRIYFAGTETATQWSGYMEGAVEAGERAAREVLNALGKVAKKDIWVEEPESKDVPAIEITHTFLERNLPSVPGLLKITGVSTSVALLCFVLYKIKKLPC

C#CCN(C)C(C)CCC.Cl.O=C(O)C(=O)O (stereo not drawn) [Example M-2-PP, N-(2-Pentyl)-N-methylpropargylamine hydrochloride and oxalate]
IC50 (monoamine oxidase): 6 µM | ED50 (MAO-A [1]): 25 mg/kg | IC50 (MAO-A [2]): 10 µM
